# Experiments:
# [1] = tested on: human PBMCs, small airway epithelial cells (hSEAC), neural crest stem cells (7SM0032); assay: Growth of nonmalignant cells; assay type: cell-based
# [2] = target: PCNA (Homo sapiens, UniProt P12004); assay: Thermal denaturation; assay type: binding; conditions: dose-dependent, largest shift
# [3] = GLP-controlled toxicity study; parameters: species or system dogs; conditions: dog, in vivo
# [4] = tested on: more than 70 cancer cell lines; assay: Growth inhibition across cancer cell lines; assay type: cell-based; conditions: read-out: median concentration to achieve 50% growth inhibition (GI50)
# [5] = tested on: SK-N-BE(2)c neuroblastoma xenograft; assay: Xenograft tumor growth; conditions: 40 mg/kg twice daily
# [6] = GLP-controlled toxicity study; parameters: species or system mice; conditions: mouse, in vivo
# [7] = Oral PK study in mice; assay type: in vivo, ES1e/SCID mice
# [8] = tested on: Salmonella tester strains TA98 and TA100; assay: Ames test; conditions: TA98 frameshift, TA100 base pair substitution
# [9] = tested on: MDA-MB-468 breast cancer xenograft; assay: Xenograft tumor growth; conditions: MDA-MB-468 xenograft, 40 mg/kg twice daily, oral
# [10] = tested on: H82 small-cell lung cancer xenograft; assay: Xenograft tumor growth; conditions: 40 mg/kg twice daily, oral
# [11] = Concentration reached in aqueous buffer for co-crystallization; assay type: physicochemical; conditions: aqueous buffer with 10% DMSO
# [12] = ES1e mice, oral, 40 mg/kg; cited from earlier work
# Chain of PCNA (P12004 whole entry): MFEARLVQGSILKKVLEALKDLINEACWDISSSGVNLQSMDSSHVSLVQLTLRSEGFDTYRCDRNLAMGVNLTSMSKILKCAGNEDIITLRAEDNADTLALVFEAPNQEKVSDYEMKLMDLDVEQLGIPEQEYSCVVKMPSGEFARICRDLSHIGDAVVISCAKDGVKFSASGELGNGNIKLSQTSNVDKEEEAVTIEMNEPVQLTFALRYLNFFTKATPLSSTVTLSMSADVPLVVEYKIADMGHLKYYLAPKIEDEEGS
smiles,measurement,setting,value
COc1cccc(Oc2ccccc2NC(=O)CNC(=O)c2cccc3ccccc23)c1 [AOH1996],concentration not significantly toxic to nonmalignant cells,[1],at least 10 μM
same,shift of protein melting curves,[2],≤ 1.5 °C
same,NOAEL at 4 weeks,[3],75 mg/kg
same,GI50,[4],~300 nM
same,tumor burden versus vehicle,"[5]; SK-N-BE(2)c xenograft, oral",significantly reduced the tumor burden
same,death and body weight in tumor studies,[5]; xenograft-bearing ES1e/SCID mice,did not cause any death or significant weight loss
same,NOAEL at 4 weeks,[6],≥ 250 mg/kg
same,absorption into the circulatory system,"[7]; animals, data not shown",~90%
same,increase in area under the curve (AUC) versus AOH1160,"[7]; mice, 40 mg/kg",~4%
same,increase in half-life versus AOH1160,"[7]; mice, 40 mg/kg",~ 27%
same,increase in peak concentration (Cmax) versus AOH1160,"[7]; mice, 40 mg/kg",~40%
same,mutagenicity in Ames test,[8],does not cause frameshift or base pair substitution
same,tumor burden versus vehicle,[9],significantly reduced the tumor burden
same,tumor burden versus vehicle,[10],significantly reduced the tumor burden
COc1cccc(Oc2ccccc2NC(=O)[C@H](CCC(=O)O)NC(=O)c2cccc3ccccc23)c1 [AOH1996LE],concentration in aqueous buffer,[11],4000 µM
O=C(CNC(=O)c1cccc2ccccc12)Nc1ccccc1Oc1ccccc1 [AOH1160],half-life,[12],3.4 h

# From paper PMC10592352 (Cell chemical biology, 2023)
